Experimental findings from patent publication EP0185130A1, “5-Alkoxy-2,4,6-triodo or tribromo-isophthalic-acid derivatives, process for their preparation and X-ray contrast agents containing them” (BRACCO INDUSTRIA CHIMICA Società per Azioni, priority 1984, dated 1986) are described below.

Converted amounts (≈) assume the structure as drawn. A value given as a limit tells only on which side of the number the result lay.

The first data set in a line: Water solubility. The data set is classed as physicochemical. Conditions: bei 25 °C.
`CC(Oc1c(I)c(C(=O)NC(CO)CO)c(I)c(C(=O)NC(CO)CO)c1I)C(=O)N(C)CC(O)C(O)CO` (stereo not drawn) [Beispiel 22, (5-(1(N-Methyl-N-2,3,4-trihydroxybutyl)aminocarbonyl)ethoxy)-2,4,6-trijodisophthalsäure-bis(1,3-dihydroxyisopropylamid)]: the Wasserlöslichkeit is given as > 100 % (g/v).

The same data set, now with this note: water, bei 20 °C; read-out: Wasserlöslichkeit.
As for `C[C@@H](Oc1c(I)c(C(=O)NC(CO)CO)c(I)c(C(=O)NC(CO)CO)c1I)C(=O)N(C)CC(O)CO` (stereo partly drawn) [Beispiel 20 R], the solubility is greater than 1000 mg/mL. With `CN(C[C@H](O)[C@H](O)CO)C(=O)COc1c(I)c(C(=O)NC(CO)CO)c(I)c(C(=O)NC(CO)CO)c1I` [Beispiel 21, 5-(N-Methyl-N-2,3,4-trihydroxybutyl)aminocarbonylmethoxy-2,4,6-trijod-isophthalsäure-bis(1,3-dihydroxyisopropylamid)], the solubility was greater than 1000 mg/mL. The same measure, in the same setting: with `CN(C[C@H](O)[C@@H](O)[C@H](O)[C@H](O)CO)C(=O)COc1c(I)c(C(=O)NC(CO)CO)c(I)c(C(=O)NC(CO)CO)c1I` [Beispiel 27, 5-(N-Methyl-N-2,3,4,5,6-pentahydroxyhexyl)aminocarbonylmethoxy-2,4,6-trijodisophthalsäure-bis(1,3-dihydroxyisopropylamid)] the figure was 1000 mg/mL (≈ 1060 mM); with `CN(C[C@H](O)[C@@H](O)[C@H](O)[C@H](O)CO)C(=O)COc1c(Br)c(C(=O)NC(CO)CO)c(Br)c(C(=O)NC(CO)CO)c1Br` [Beispiel 29, 5(N-Methyl-N-2,3,4,5,6-pentahydroxyhexyl)aminocarbonylmethoxy-2,4,6-tribromisophthalsäure-bis(1,3-dihydroxyisopropylamid)], greater than 1000 mg/mL; with `O=C(COc1c(I)c(C(=O)NCC(O)CO)c(I)c(C(=O)NCC(O)CO)c1I)NCC(O)CO` (stereo not drawn) [Beispiel 32, 5-(2,3-Dihydroxypropylaminocarbonylmethoxy)-2,4,6-trijodisophthalsäure-bis(2,3-dihydroxypropylamid)], 10 mg/mL (≈ 11.9 mM). As to `CN(C[C@H](O)[C@@H](O)[C@H](O)[C@H](O)CO)C(=O)COc1c(I)c(C(=O)NCC(O)CO)c(I)c(C(=O)NCC(O)CO)c1I` (stereo partly drawn) [Beispiel 37, 5-(N-Methyl-N-2,3,4,5,6-pentahydroxyhexyl)aminocarbonylmethoxy-2,4,6-trijodisophthalsäure-bis(2,3-dihydroxypropylamid)], the solubility was greater than 1000 mg/mL.

For `CN(C[C@H](O)[C@@H](O)[C@H](O)[C@H](O)CO)C(=O)COc1c(Br)c(C(=O)NCC(O)CO)c(Br)c(C(=O)NCC(O)CO)c1Br` (stereo partly drawn) [Beispiel 38, 5-(N-Methyl-N-2,3,4,5,6-pentahydroxyhexyl)aminocarbonylmethoxy-2,4,6-tribromisophthalsäure-bis(2,3-dihydroxypropylamid)], the solubility was greater than 1000 mg/mL. With `CN(CC(O)CO)C(=O)COc1c(I)c(C(=O)NC(C)(CO)CO)c(I)c(C(=O)NC(C)(CO)CO)c1I` (stereo not drawn) [Beispiel 39, 5(N-Methyl-N-2,3-dihydroxypropyl)aminocarbonylmethoxy-2,4,6-trijod-isophthalsäure-bis(1,3-dihydroxy-2-methylisopropylamid)], the solubility is no less than 1000 mg/mL.

Staying with this data set, now noted: water, bei 25 °C; read-out: Wasserlöslichkeit.
Take `C[C@@H](Oc1c(I)c(C(=O)NC(CO)CO)c(I)c(C(=O)NC(CO)CO)c1I)C(=O)N(C)C[C@H](O)[C@@H](O)[C@@H](O)CO` [Beispiel 26, R-5(1((N-Methyl-N-2,3,4,5-tetrahydroxypentyl)aminocarbonyl)ethoxy)-2,4,6-trijodisophthalsäure-bis(1,3-dihydroxyisopropylamid)]: the solubility is greater than 1000 mg/mL. For the molecule `CC(Oc1c(I)c(C(=O)NC(CO)CO)c(I)c(C(=O)NC(CO)CO)c1I)C(=O)N(C)C[C@H](O)[C@@H](O)[C@H](O)[C@H](O)CO` (stereo partly drawn) [Beispiel 28 R,S], the solubility is greater than 1000 mg/mL. `C[C@@H](Oc1c(I)c(C(=O)NC(CO)CO)c(I)c(C(=O)NC(CO)CO)c1I)C(=O)N(C)C[C@H](O)[C@@H](O)[C@H](O)[C@H](O)CO` [Beispiel 28 R]: the solubility is greater than 1000 mg/mL. Consider `O=C(COc1c(I)c(C(=O)NCC(O)CO)c(I)c(C(=O)NCC(O)CO)c1I)NCCO` (stereo not drawn) [Beispiel 31, 5-(2-Hydroxyethylaminocarbonylmethoxy)-2,4,6-trijodisophthalsäure-bis(2,3-dihydroxypropylamid)], for which the solubility was found to be 12 mg/mL (≈ 14.9 mM). As for `CC(CO)(CO)NC(=O)COc1c(I)c(C(=O)NCC(O)CO)c(I)c(C(=O)NCC(O)CO)c1I` (stereo not drawn) [Beispiel 33, 5-(1,3-Dihydroxy-2-methylisopropylaminocarbonylmethoxy)-2,4,6-trijod-isophthalsäure-bis(2,3-dihydroxypropylamid)], the solubility is greater than 1000 mg/mL. Still for that read-out and setting: to `CN(CC(O)CO)C(=O)COc1c(I)c(C(=O)NCC(O)CO)c(I)c(C(=O)NCC(O)CO)c1I` (stereo not drawn) [Beispiel 34, 5-(N-Methyl-N-2,3-dihydroxypropyl)aminocarbonylmethoxy-2,4,6-trijod-isophthalsäure-bis(2,3-dihydroxypropylamid)] belongs greater than 1000 mg/mL; to `CN(C[C@H](O)[C@H](O)CO)C(=O)COc1c(I)c(C(=O)NCC(O)CO)c(I)c(C(=O)NCC(O)CO)c1I` (stereo partly drawn) [Beispiel 35, 5-(N-Methyl-N-2,3,4-trihydroxybutyl)aminocarbonylmethoxy-2,4,6-trijod-isophthalsäure-bis(2,3-dihydroxypropylamid)], greater than 1000 mg/mL. On the same count and under the same terms, with `CN(C[C@H](O)[C@@H](O)[C@@H](O)CO)C(=O)COc1c(I)c(C(=O)NCC(O)CO)c(I)c(C(=O)NCC(O)CO)c1I` (stereo partly drawn) [Beispiel 36, 5-(N-Methyl-N-2,3,4,5-tetrahydroxypentyl)aminocarbonylmethoxy-2,4,6-trijodisophthalsäure-bis(2,3-dihydroxypropylamid)] the figure was greater than 1000 mg/mL.

For `CCOCCOCCOc1c(I)c(C(=O)N(C)CC(O)CO)c(I)c(C(=O)N(C)CC(O)CO)c1I` (stereo not drawn) [Beispiel 40, 5-(3,6-Dioxaoctyl)oxy-2,4,6-trijodisophthalsäure-bis(N-methyl-N-2,3-dihydroxypropylamid)], the solubility is greater than 600 mg/mL.

The data set is the same for the next values; noted with them: water, bei Siedetemperatur; read-out: Wasserlöslichkeit.
For the molecule `CNC(=O)COc1c(I)c(C(=O)NCC(O)CO)c(I)c(C(=O)NCC(O)CO)c1I` (stereo not drawn) [Beispiel 30, 5-Methylaminocarbonylmethoxy-2,4,6-trijodisophthalsäure-bis(2,3-di-hydroxypropylamid)], the solubility is 20 mg/mL (≈ 25.7 mM). In the case of `O=C(COc1c(I)c(C(=O)NCC(O)CO)c(I)c(C(=O)NCC(O)CO)c1I)NCCO` (stereo not drawn) [Beispiel 31, 5-(2-Hydroxyethylaminocarbonylmethoxy)-2,4,6-trijodisophthalsäure-bis(2,3-dihydroxypropylamid)], the solubility was 130 mg/mL (≈ 161 mM). Same read-out and setting: with `O=C(COc1c(I)c(C(=O)NCC(O)CO)c(I)c(C(=O)NCC(O)CO)c1I)NCC(O)CO` (stereo not drawn) [Beispiel 32, 5-(2,3-Dihydroxypropylaminocarbonylmethoxy)-2,4,6-trijodisophthalsäure-bis(2,3-dihydroxypropylamid)] the figure was 100 mg/mL (≈ 119 mM).

Still in this data set, the particulars now being: water, no temperature stated; read-out: Wasserlöslichkeit.
In the case of `O=C(NC(CO)CO)c1c(I)c(OCC(=O)N(CCO)CC(O)CO)c(I)c(C(=O)NC(CO)CO)c1I` (stereo not drawn) [Beispiel 23, 5-(N-2-Hydroxyethyl-N-2,3-dihydroxypropyl)aminocarbonylmethoxy-2,4,6-trijodisophthalsäure-bis(1,3-dihydroxyisopropylamid)], the solubility is greater than 1000 mg/mL. As for `C[C@@H](Oc1c(I)c(C(=O)NC(CO)CO)c(I)c(C(=O)NC(CO)CO)c1I)C(=O)N(CCO)CC(O)CO` (stereo partly drawn) [Beispiel 24, R-5(1((N-2-Hydroxyethyl-N-2,3-dihydroxypropyl)aminocarbonyl)ethoxy)-2,4,6-trijodisophthalsäure-bis(1,3-dihydroxyisopropylamid)], the solubility was greater than 1000 mg/mL. On the same count and under the same terms, with `CN(C[C@@H](O)[C@H](O)[C@H](O)CO)C(=O)COc1c(I)c(C(=O)NC(CO)CO)c(I)c(C(=O)NC(CO)CO)c1I` [Beispiel 25, 5-(N-Methyl-N-2,3,4,5-tetrahydroxypentyl)aminocarbonylmethoxy-2,4,6-trijodisophthalsäure-bis(1,3-dihydroxyisopropylamid)] the figure was greater than 1000 mg/mL.
